In ChEMBL document CHEMBL1201862, “PubChem BioAssay data set” (2004):
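All cell lines were grown in 96-well plates and treated with compound for 48 hours. GI50 marks 50% less growth.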 Active and inactive are the calls of the source. Cut-off read from the data, not from the text of the source: active = GI50 up to about 1.1 µM and inactive = higher.

Legend:
Assay in all cases: DTP human tumour cell line panel, 48 h
[1] = test system: MDA-MB-231
[2] = test system: IGROV-1
[3] = test system: OVCAR-8
[4] = test system: A549
[5] = test system: MOLT-4
[6] = test system: UACC-62
[7] = test system: NCI/ADR-RES
[8] = test system: RPMI-8226
[9] = test system: EKVX
[10] = test system: UACC-257
[11] = test system: SK-MEL-28
[12] = test system: CAKI-1
[13] = test system: KM12
[14] = test system: SF-295
[15] = test system: OVCAR-5
[16] = test system: SNB-19
[17] = test system: SK-MEL-5
[18] = test system: SK-MEL-2

Row | SMILES | GI50 [1] | GI50 [2] | GI50 [3] | GI50 [4] | GI50 [5] | GI50 [6] | GI50 [7] | GI50 [8] | GI50 [9] | GI50 [10] | GI50 [11] | GI50 [12] | GI50 [13] | GI50 [14] | GI50 [15] | GI50 [16] | GI50 [17] | GI50 [18]
1 | O=[N+]([O-])c1ccc(/C=C/c2cc(-c3ccccc3)nc3ccc4ccccc4c23)cc1 | > 100 µM (inactive) | > 100 µM (inactive) | > 100 µM (inactive) | > 100 µM (inactive) | > 100 µM (inactive) | > 100 µM (inactive) | > 100 µM (inactive) | > 100 µM (inactive) | > 100 µM (inactive) | > 100 µM (inactive) | > 100 µM (inactive) | > 100 µM (inactive) | > 100 µM (inactive) | > 100 µM (inactive) | > 100 µM (inactive) | > 100 µM (inactive) | > 100 µM (inactive) | –
2 | N[C@H]1CCN(c2c(F)cc3c(=O)c(C(=O)O)cn4c3c2Oc2cc3c(ccc5ccccc53)cc2-4)C1 | 0.014 µM (active) | 2.59 µM (inactive) | 2.96 µM (inactive) | 3.87 µM (inactive) | 1.45 µM (inactive) | 6.14 µM (inactive) | 8.17 µM (inactive) | 1.58 µM (inactive) | 3.65 µM (inactive) | 4.9 µM (inactive) | – | 3.6 µM (inactive) | 3.49 µM (inactive) | 2.98 µM (inactive) | 11 µM (inactive) | 5.81 µM (inactive) | 1.87 µM (inactive) | 2.96 µM (inactive)
3 | CN(CC(=O)O)S(=O)(=O)c1ccc2ccccc2c1 | – | > 100 µM (inactive) | > 100 µM (inactive) | > 100 µM (inactive) | > 100 µM (inactive) | > 100 µM (inactive) | – | > 100 µM (inactive) | > 100 µM (inactive) | > 100 µM (inactive) | > 100 µM (inactive) | > 100 µM (inactive) | > 100 µM (inactive) | > 100 µM (inactive) | > 100 µM (inactive) | > 100 µM (inactive) | > 100 µM (inactive) | > 100 µM (inactive)
4 | Fc1ccc(NCn2nc(COc3ccccc3Cl)n(/N=C/c3ccc(-c4ccc(Cl)cc4Cl)o3)c2=S)cc1Cl | 44.4 µM (inactive) | 29.2 µM (inactive) | 36.1 µM (inactive) | – | 16.1 µM (inactive) | – | 43.5 µM (inactive) | 22.3 µM (inactive) | > 100 µM (inactive) | 41.5 µM (inactive) | > 100 µM (inactive) | 34.4 µM (inactive) | 26 µM (inactive) | 33 µM (inactive) | > 100 µM (inactive) | – | 7.62 µM (inactive) | 25 µM (inactive)
5 | Cc1ccc(S(=O)(=O)NC(=O)NC(C(=O)O)C(C)C)cc1 (stereo not given) | > 100 µM (inactive) | > 100 µM (inactive) | > 100 µM (inactive) | > 100 µM (inactive) | > 100 µM (inactive) | > 100 µM (inactive) | > 100 µM (inactive) | > 100 µM (inactive) | – | > 100 µM (inactive) | > 100 µM (inactive) | – | > 100 µM (inactive) | > 100 µM (inactive) | > 100 µM (inactive) | > 100 µM (inactive) | > 100 µM (inactive) | > 100 µM (inactive)
6 | COc1ccc(N2C(=O)CC(c3c[nH]c4ccccc34)C2=O)cc1 (stereo not given) | > 100 µM (inactive) | > 100 µM (inactive) | > 100 µM (inactive) | > 100 µM (inactive) | > 100 µM (inactive) | > 100 µM (inactive) | 97.3 µM (inactive) | > 100 µM (inactive) | > 100 µM (inactive) | > 100 µM (inactive) | > 100 µM (inactive) | > 100 µM (inactive) | – | > 100 µM (inactive) | > 100 µM (inactive) | > 100 µM (inactive) | > 100 µM (inactive) | > 100 µM (inactive)
7 | COC(=O)[C@@H]1C=C[C@@H](C#N)n2c(=O)n(-c3ccccc3)c(=O)n21 | 19.7 µM (inactive) | 32.6 µM (inactive) | 23.3 µM (inactive) | – | 34.7 µM (inactive) | 36.6 µM (inactive) | 26.4 µM (inactive) | 31.8 µM (inactive) | 35.5 µM (inactive) | 39.4 µM (inactive) | 17 µM (inactive) | 98.9 µM (inactive) | 28.8 µM (inactive) | 23.8 µM (inactive) | 29.4 µM (inactive) | > 100 µM (inactive) | 46.3 µM (inactive) | –
8 | C[N+]12C=CC=C1C(N1CCCC1)c1scc(-c3ccc(F)cc3)c12 (stereo not given) | 42.2 µM (inactive) | 13.1 µM (inactive) | 40.4 µM (inactive) | 56 µM (inactive) | 21.6 µM (inactive) | 35.4 µM (inactive) | > 100 µM (inactive) | 10.4 µM (inactive) | 92.3 µM (inactive) | – | 66.5 µM (inactive) | > 100 µM (inactive) | 23.8 µM (inactive) | 58.7 µM (inactive) | 32.4 µM (inactive) | 15.1 µM (inactive) | 13.5 µM (inactive) | 10.5 µM (inactive)
9 | COC(=O)C12CCC(C)(C)CC1C1=CCC3C4(C)CC(O)C(O)C(C)(C(=O)OC)C4CCC3(C)C1(CO)CC2 (stereo not given) | 17.4 µM (inactive) | 17.8 µM (inactive) | 13.6 µM (inactive) | 13.4 µM (inactive) | 8.13 µM (inactive) | 14.3 µM (inactive) | 12.9 µM (inactive) | 12.1 µM (inactive) | 18.9 µM (inactive) | 17.2 µM (inactive) | – | 14 µM (inactive) | 9.38 µM (inactive) | 14.7 µM (inactive) | 17.9 µM (inactive) | 16.6 µM (inactive) | 16 µM (inactive) | 14 µM (inactive)
10 | C=C(C)CC(C)(c1cc2ccccc2n1C)N1CCOCC1 (stereo not given) | – | 75.7 µM (inactive) | 67.1 µM (inactive) | 59.2 µM (inactive) | 40.3 µM (inactive) | 45.1 µM (inactive) | – | – | 36.4 µM (inactive) | 95.1 µM (inactive) | > 100 µM (inactive) | 80.5 µM (inactive) | 38.4 µM (inactive) | > 100 µM (inactive) | – | > 100 µM (inactive) | 42.2 µM (inactive) | > 100 µM (inactive)
11 | CC(=O)OCC1OC(n2c3c(c(-c4cccc5ccccc45)c(C#N)c2=S)CCCC3)C(OC(C)=O)C(OC(C)=O)C1OC(C)=O (stereo not given) | > 100 µM (inactive) | > 100 µM (inactive) | > 100 µM (inactive) | > 100 µM (inactive) | > 100 µM (inactive) | > 100 µM (inactive) | > 100 µM (inactive) | – | 25.8 µM (inactive) | > 100 µM (inactive) | > 100 µM (inactive) | – | > 100 µM (inactive) | > 100 µM (inactive) | > 100 µM (inactive) | > 100 µM (inactive) | > 100 µM (inactive) | 20.7 µM (inactive)
12 | CC1=C(C#N)C2C(=C(N)Oc3ccccc32)C(N)=N1 (stereo not given) | 14 µM (inactive) | 25.4 µM (inactive) | 25.1 µM (inactive) | 38.3 µM (inactive) | 75 µM (inactive) | 20.7 µM (inactive) | 19.3 µM (inactive) | 24 µM (inactive) | 25.4 µM (inactive) | 20.1 µM (inactive) | – | 19.1 µM (inactive) | 26.4 µM (inactive) | 26.9 µM (inactive) | 24.8 µM (inactive) | 21.8 µM (inactive) | 23.7 µM (inactive) | 20.1 µM (inactive)
13 | COc1ccc(-n2c(CCC(=O)O)nc3c2C(=O)c2ccccc2C3=O)cc1 | > 100 µM (inactive) | – | > 100 µM (inactive) | > 100 µM (inactive) | > 100 µM (inactive) | > 100 µM (inactive) | > 100 µM (inactive) | > 100 µM (inactive) | > 100 µM (inactive) | > 100 µM (inactive) | > 100 µM (inactive) | > 100 µM (inactive) | > 100 µM (inactive) | > 100 µM (inactive) | > 100 µM (inactive) | > 100 µM (inactive) | > 100 µM (inactive) | 88.1 µM (inactive)
14 | COc1cc(C2c3cc4c(cc3[C@@H](Nc3ccccc3)C3COC[C@H]23)OCO4)cc(OC)c1O (stereo not given in full) | 1.64 µM (inactive) | 8.34 µM (inactive) | 2.82 µM (inactive) | 0.35 µM (active) | 0.0665 µM (active) | – | 10.9 µM (inactive) | 0.631 µM (active) | 15.4 µM (inactive) | 14.6 µM (inactive) | 5.77 µM (inactive) | – | 2.84 µM (inactive) | 0.485 µM (active) | 2.36 µM (inactive) | 1.69 µM (inactive) | 2.3 µM (inactive) | –
15 | Nn1c(CCCCCCCCc2nnc(COc3ccc4ccccc4c3O)n2N)nnc1COc1ccc2ccccc2c1O | 23.2 µM (inactive) | 4.92 µM (inactive) | – | 25.1 µM (inactive) | 14.9 µM (inactive) | 26.4 µM (inactive) | 17.5 µM (inactive) | 22.3 µM (inactive) | 43.7 µM (inactive) | 39.9 µM (inactive) | 32.4 µM (inactive) | 18.2 µM (inactive) | 18.7 µM (inactive) | 28.6 µM (inactive) | 14.2 µM (inactive) | 30 µM (inactive) | 20.1 µM (inactive) | 32.1 µM (inactive)
16 | COc1ccc(-c2coc3cc(OC)cc(O)c3c2=O)cc1 [4',7-DIMETHOXY-5-HYDROXYGENISTEIN] | 31 µM (inactive) | > 100 µM (inactive) | > 100 µM (inactive) | > 100 µM (inactive) | – | > 100 µM (inactive) | > 100 µM (inactive) | > 100 µM (inactive) | > 100 µM (inactive) | > 100 µM (inactive) | > 100 µM (inactive) | > 100 µM (inactive) | > 100 µM (inactive) | > 100 µM (inactive) | > 100 µM (inactive) | 31.4 µM (inactive) | > 100 µM (inactive) | –
